{
  "source": "patent US5670618A",
  "about": "“Insulin-like peptide” (The State University of New Jersey, priority 1995, dated 1997)",
  "key": {"[1]": {"molecular_target": "T1, membrane-associated adenylate cyclase from Neurospora crassa (Neurospora crassa, UniProt Q01631)", "T1 construct": "host or cells: Neurospora crassa membranes", "T1 sequence (Q01631 whole entry)": "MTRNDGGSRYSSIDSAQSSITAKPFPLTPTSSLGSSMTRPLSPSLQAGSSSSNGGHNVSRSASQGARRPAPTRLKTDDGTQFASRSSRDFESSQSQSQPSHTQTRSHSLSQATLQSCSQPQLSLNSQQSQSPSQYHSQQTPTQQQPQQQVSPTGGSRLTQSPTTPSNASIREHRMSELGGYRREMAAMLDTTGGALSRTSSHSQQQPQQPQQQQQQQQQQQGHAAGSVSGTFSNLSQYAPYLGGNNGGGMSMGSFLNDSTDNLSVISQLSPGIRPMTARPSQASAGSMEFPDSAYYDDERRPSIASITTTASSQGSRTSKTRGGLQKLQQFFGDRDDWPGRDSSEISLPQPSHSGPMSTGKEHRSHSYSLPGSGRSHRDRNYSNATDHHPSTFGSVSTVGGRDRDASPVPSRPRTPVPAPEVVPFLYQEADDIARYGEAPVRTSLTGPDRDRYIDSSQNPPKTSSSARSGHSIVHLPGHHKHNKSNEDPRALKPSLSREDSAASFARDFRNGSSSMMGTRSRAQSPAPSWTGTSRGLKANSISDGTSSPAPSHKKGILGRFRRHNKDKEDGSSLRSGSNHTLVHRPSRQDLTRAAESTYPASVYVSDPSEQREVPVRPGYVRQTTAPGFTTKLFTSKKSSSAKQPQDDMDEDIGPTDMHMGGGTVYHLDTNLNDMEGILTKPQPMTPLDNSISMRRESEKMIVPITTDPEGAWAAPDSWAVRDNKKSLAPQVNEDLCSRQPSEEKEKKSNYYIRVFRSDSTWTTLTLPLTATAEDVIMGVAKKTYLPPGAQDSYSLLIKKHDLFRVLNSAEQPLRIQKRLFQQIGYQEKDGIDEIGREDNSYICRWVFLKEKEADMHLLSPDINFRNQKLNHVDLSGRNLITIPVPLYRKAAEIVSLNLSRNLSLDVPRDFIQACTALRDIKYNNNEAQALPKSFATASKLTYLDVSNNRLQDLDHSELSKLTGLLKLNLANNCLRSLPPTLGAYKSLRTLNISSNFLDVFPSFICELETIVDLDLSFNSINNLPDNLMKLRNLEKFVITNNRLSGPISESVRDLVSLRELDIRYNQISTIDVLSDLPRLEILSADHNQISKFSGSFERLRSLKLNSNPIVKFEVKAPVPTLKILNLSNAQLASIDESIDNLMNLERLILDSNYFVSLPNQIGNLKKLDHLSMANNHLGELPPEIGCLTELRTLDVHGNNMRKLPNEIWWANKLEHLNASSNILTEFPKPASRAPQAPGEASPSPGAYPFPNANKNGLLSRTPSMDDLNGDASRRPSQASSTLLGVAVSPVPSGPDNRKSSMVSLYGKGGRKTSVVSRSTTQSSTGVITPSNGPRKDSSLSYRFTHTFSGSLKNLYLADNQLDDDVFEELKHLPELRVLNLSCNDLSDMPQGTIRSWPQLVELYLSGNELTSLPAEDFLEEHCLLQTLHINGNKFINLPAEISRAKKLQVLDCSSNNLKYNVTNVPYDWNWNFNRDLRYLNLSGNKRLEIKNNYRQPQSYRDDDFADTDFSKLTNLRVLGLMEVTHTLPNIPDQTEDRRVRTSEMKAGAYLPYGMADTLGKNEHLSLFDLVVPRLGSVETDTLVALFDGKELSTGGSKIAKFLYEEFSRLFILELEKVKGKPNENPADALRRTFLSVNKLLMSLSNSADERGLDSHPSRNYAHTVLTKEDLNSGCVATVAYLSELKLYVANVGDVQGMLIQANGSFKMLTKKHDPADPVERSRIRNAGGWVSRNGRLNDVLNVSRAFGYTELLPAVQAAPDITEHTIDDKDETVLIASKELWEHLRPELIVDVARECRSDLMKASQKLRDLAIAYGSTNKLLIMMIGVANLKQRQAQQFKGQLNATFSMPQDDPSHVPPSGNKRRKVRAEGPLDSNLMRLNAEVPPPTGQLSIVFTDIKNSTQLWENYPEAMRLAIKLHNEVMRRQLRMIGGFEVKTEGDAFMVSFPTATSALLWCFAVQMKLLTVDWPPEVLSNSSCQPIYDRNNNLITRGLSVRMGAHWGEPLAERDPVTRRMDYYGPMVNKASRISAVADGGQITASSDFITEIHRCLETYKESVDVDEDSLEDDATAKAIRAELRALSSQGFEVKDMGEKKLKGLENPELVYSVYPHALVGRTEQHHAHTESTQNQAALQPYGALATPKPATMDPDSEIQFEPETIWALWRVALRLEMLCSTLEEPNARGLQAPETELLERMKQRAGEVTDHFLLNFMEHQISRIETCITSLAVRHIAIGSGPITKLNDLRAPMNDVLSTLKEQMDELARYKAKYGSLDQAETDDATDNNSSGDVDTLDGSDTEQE", "conditions": "insulin at low doses (10^-9 M); cited from earlier work"}, "Tetrahymena pyriformis": {"tested_on": "Tetrahymena pyriformis", "conditions": "cited from earlier work"}, "[2]": {"tested_on": "cell wall-less strain of Neurospora", "conditions": "cited from earlier work"}, "[3]": {"molecular_target": "isolated plasma membranes (high affinity binding sites for insulin and IGF-I)", "experiment": "binding assays with isolated plasma membranes", "design": "species or system S. cerevisiae"}, "[4]": {"tested_on": "solubilized and wheat germ column purified plasma membrane preparations", "experiment": "binding to solubilized and wheat germ column purified plasma membrane preparations", "design": "species or system S. cerevisiae", "conditions": "wheat germ column purified membranes, comparable conditions"}, "[5]": {"tested_on": "stationary phase cells (yeast)", "experiment": "stimulation of glycogen synthesis in yeast (14C-glucose incorporation)", "assay_type": "cell-based", "conditions": "binding to insulin-related receptor on yeast cell, under proper conditions", "method": "To assay the effect of ScILP on glycogen synthesis, stationary phase cells are preincubated in phosphate buffer with various doses of ScILP (or a variant thereof). After 30 min of incubation in the presence of 1% glucose and uniformly labelled ^14 C-glucose, the cells are pelleted, resuspended in sodium carbonate, neutralized with HCl and treated with α-amylase to release the glucose incorporated into the newly synthesized glycogen. The enzymatically released glucose is collected and quantitated by scintillation counting."}, "[6]": {"tested_on": "cell wall-less strain of Neurospora", "conditions": "added to nutritionally rich, chemically defined culture medium; cited from earlier work"}, "[7]": {"tested_on": "insulin receptor-like protein in yeast", "experiment": "autophosphorylation of insulin receptor-like protein in yeast", "assay_type": "cell-based"}, "intact yeast cells": {"tested_on": "intact yeast cells", "experiment": "porcine 125I-insulin binding and displacement, intact yeast cells", "design": "species or system S. cerevisiae", "method": "Insulin binding studies with intact logarithmic and stationary phase yeast cells were performed under typical conditions for mammalian cells (25,26). In logarithmic phase yeast, porcine ^125 I-insulin binding had reached apparent equilibrium by 1-2 h and represented ca. 0.5% of the total counts specifically bound (FIG. 2a). At this time, greater than 95% of the labelled insulin appeared to be intact, as judged by TCA precipitable counts. Unlabelled porcine insulin displaced labelled insulin from intact yeast cells in a dose dependent fashion with 50% bound occurring around 10^-9 M (FIG. 2b). This value is in good agreement with the value obtained for displacement of insulin from mammalian cells."}},
  "note": "pIC50, pKd: −log10 of the molar value.",
  "data": [
    {"substance": "bovine insulin", "values": [
      {"measurement": "effect on adenylate cyclase specific activity", "setting": "[1]", "value": "significantly inhibit"},
      {"measurement": "effect on glucose uptake", "setting": "Tetrahymena pyriformis", "value": "small effect"},
      {"measurement": "increase of 14C-labelled glucose incorporation into glycogen", "setting": "[2]; 30 min treatment, 100 nM", "value": 41, "unit": "%"},
      {"measurement": "more glycogen than control cells", "setting": "[2]; cells grown in presence of 100 nM insulin", "value": 40, "unit": "%"},
      {"measurement": "intracellular levels of UDPG-glucose by 31P-NMR", "setting": "[2]", "value": "increase"}
    ]},
    {"substance": "glucagon", "values": [
      {"measurement": "effect on adenylate cyclase specific activity", "setting": "[1]", "value": "stimulated adenylate cyclase activity"}
    ]},
    {"substance": "insulin", "values": [
      {"measurement": "pKd", "setting": "[3]", "value": 9.15},
      {"measurement": "specific binding (of 4-5% total binding)", "setting": "[4]", "value": "1-2%"}
    ]},
    {"substance": "insulin-like growth factor (IGF-I)", "values": [
      {"measurement": "specific binding (of 4-5% total binding)", "setting": "[4]", "value": "1-2%"}
    ]},
    {"substance": "mammalian insulin", "values": [
      {"measurement": "effect on glycogen synthesis", "setting": "[5]", "value": "stimulates glycogen synthesis"},
      {"measurement": "influence on growth, morphology and viability", "setting": "[6]", "value": "distinctively different morphology, enhanced growth, and extension of viability at the stationary phase in culture"},
      {"measurement": "autophosphorylation of insulin receptor-like protein on tyrosine residues", "setting": "[7]", "value": "results in its autophosphorylation on tyrosine residues"}
    ]},
    {"substance": "porcine insulin", "values": [
      {"measurement": "labelled insulin intact, judged by TCA precipitable counts", "setting": "intact yeast cells; at apparent equilibrium of binding (1-2 h)", "value": "greater than 95%"},
      {"measurement": "pIC50", "setting": "intact yeast cells; intact yeast cells, dose dependent displacement, read-out: concentration of unlabelled insulin at 50% bound (displacement of labelled insulin)", "value": "~9.00"},
      {"measurement": "time to apparent binding equilibrium", "setting": "intact yeast cells; logarithmic phase yeast", "value": "1 to 2", "unit": "h"},
      {"measurement": "total counts specifically bound", "setting": "intact yeast cells; logarithmic phase yeast, at apparent equilibrium", "value": "ca. 0.5%"}
    ]},
    {"substance": "proinsulin", "values": [
      {"measurement": "influence on growth, morphology and viability", "setting": "[6]", "value": "inactive"}
    ]},
    {"substance": "reduced insulin", "values": [
      {"measurement": "influence on growth, morphology and viability", "setting": "[6]", "value": "inactive"}
    ]}
  ]
}
